Four compounds from ChEMBL document CHEMBL1145800, “QSAR and proteo-chemometric analysis of the interaction of a series of organic compounds with melanocortin receptor subtypes” (J Med Chem, 2003) can be followed below.

Test [1] deals with Melanocyte-stimulating hormone receptor (Homo sapiens, UniProt Q01726). The experiment in a line: Binding affinity towards Melanocortin 1 receptor, expressed as negative log of the Ki value.
In test [2] the target is Melanocortin receptor 3 (Homo sapiens, UniProt P41968). Put plainly: Binding affinity towards Melanocortin 3 receptor, expressed as negative log of the Ki value.
Chain of Melanocortin receptor 3 (P41968 whole entry): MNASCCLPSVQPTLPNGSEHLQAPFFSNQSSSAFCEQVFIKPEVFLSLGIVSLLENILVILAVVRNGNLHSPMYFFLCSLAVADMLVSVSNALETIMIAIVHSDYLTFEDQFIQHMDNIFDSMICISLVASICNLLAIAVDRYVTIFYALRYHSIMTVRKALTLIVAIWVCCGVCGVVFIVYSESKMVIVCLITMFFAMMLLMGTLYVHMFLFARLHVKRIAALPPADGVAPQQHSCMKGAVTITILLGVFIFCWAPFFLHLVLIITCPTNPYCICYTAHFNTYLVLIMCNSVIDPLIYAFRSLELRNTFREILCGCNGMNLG
The target in test [3] is Melanocortin receptor 4 (Homo sapiens, UniProt P32245). Put plainly: Binding affinity towards Melanocortin 4 receptor, expressed as negative log of the Ki value.
Chain of Melanocortin receptor 4 (P32245 whole entry): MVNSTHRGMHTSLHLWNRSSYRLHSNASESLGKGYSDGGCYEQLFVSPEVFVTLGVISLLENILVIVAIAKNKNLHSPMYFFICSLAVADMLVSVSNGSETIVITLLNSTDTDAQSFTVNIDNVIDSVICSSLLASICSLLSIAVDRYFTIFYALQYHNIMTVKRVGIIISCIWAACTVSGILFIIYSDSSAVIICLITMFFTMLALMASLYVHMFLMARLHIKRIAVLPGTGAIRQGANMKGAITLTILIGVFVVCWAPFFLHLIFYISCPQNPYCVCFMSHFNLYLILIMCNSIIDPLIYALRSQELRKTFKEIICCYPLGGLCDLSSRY
Test [4] has as its target Melanocortin receptor 5 (Homo sapiens, UniProt P33032). Put plainly: Binding affinity towards Melanocortin 5 receptor, expressed as negative log of the Ki value.

Chain of Melanocortin receptor 5 (P33032 whole entry): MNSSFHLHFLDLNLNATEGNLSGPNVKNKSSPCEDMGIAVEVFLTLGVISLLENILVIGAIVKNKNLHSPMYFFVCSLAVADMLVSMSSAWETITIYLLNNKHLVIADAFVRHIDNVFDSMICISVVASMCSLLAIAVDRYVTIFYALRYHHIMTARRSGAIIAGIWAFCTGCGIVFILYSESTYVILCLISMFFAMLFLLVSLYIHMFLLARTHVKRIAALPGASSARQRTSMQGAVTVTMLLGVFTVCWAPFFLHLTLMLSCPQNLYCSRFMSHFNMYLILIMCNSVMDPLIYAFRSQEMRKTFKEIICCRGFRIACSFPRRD
Chain of Melanocyte-stimulating hormone receptor (Q01726 whole entry): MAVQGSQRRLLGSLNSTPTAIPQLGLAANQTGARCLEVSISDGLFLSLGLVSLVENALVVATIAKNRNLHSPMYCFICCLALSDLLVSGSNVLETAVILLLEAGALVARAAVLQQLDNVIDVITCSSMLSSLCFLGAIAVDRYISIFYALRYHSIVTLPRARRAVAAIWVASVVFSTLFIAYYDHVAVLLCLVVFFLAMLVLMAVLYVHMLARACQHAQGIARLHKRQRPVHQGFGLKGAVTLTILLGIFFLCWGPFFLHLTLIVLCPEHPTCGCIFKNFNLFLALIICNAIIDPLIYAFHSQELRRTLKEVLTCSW

As to `NC(N)=NCCC[C@H](N)C(=O)N(Cc1ccc2ccccc2c1)Cc1cccc2ccccc12`, the inhibition constant (Ki) (commonly the dissociation constant of the complex between target and ligand, obtained from inhibition or displacement) is 0.631 µM in test [1], 7.94 µM in test [2] and 5.01 µM in test [3].

As to `NCCCNC(=O)[C@H](CNCc1c[nH]c2ccccc12)NCc1ccc2ccccc2c1`, the Ki was 0.631 µM in test [1], 50.1 µM in test [2], 25.1 µM in test [3] and 39.8 µM in test [4].

For the compound `N=C(N)NCCCNC(=O)[C@H](CCCN=C(N)N)NCc1ccc2ccccc2c1`, the Ki in test [1] was 3.98 µM; in test [2], 5.01 µM; in test [3] it was 31.6 µM; in test [4] it was 1000 µM.

`NCCCCCC(=O)N(Cc1ccc2ccccc2c1)Cc1cccc2ccccc12`: the Ki was 1.58 µM in test [1], 31.6 µM in test [2], 2 µM in test [3] and 3.98 µM in test [4].
